Results: publication PMC8151143

Molecular target: T1, rPtCLec2 (PtCLec2) (Portunus trituberculatus, UniProt A0A7S5QMV0)
T1 construct: gene CLec2; mature peptide (signal peptide residues 1-19 removed) in pET-32a, N-terminal Trx and His tags kept, about 50 kDa; single CRD with QPD motif
T1 sequence (A0A7S5QMV0 20-267): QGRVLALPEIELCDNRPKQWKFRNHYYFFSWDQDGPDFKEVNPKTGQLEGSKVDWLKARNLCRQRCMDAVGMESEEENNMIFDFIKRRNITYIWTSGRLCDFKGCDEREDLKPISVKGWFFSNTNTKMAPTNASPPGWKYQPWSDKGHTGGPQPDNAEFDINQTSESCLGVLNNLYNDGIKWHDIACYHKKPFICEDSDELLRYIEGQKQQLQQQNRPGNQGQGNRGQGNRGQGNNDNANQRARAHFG
Experiment: inhibition of agglutination of FITC-labelled Pseudomonas aeruginosa, fluorescence microscopy
Assay type: binding
Conditions: 10 mM CaCl2; 25-200 mM sugar tested; rPtCLec2 100 ug/mL; 30 min preincubation; indirect (competition) read-out

SMILES | minimum concentration of carbohydrate that could completely inhibit bacterial agglutinating activity
OC[C@H]1OC(O)[C@H](O)[C@@H](O)[C@H]1O (stereo partly drawn) [D-galactose] | inhibited with the increasing concentration of LPS, D-galactose, and D-mannose
OC[C@H]1OC(O)[C@@H](O)[C@@H](O)[C@@H]1O (stereo partly drawn) [D-mannose] | inhibited with the increasing concentration of LPS, D-galactose, and D-mannose
